From US11512279B2, “Technology to generate and utilize customized microorganism-growth assay keys” (priority 2018, dated 2022)

How the values were obtained:
[1] = system: C. auris; assay: Plate assay on Sabouraud dextrose medium with tBHP (FIGS. 13A-13B); format: cell-based, Candida auris; settings: 30° C.
Method: FIGS. 13A-13B illustrate C. auris's relative sensitivity to tBHP. FIG. 13A depicts a plate with a tBHP-containing culture medium that includes seven different yeasts (Candida albicans, Candida glabrata, Candida krusei, Candida auris, Candida haemulonii, Candida famata, and Saccharomyces cerevisiae) at five different calculated cell counts (62, 625, 6,250, […], with the uncertainty inherent in the calculation). The yeast-containing plate was incubated at 30° C. The plating scheme is illustrated in FIG. 1. The culture medium comprised a Sabouraud dextrose medium with tBHP (added after autoclaving the other media ingredients from a 70% solution in water). Whereas a resuspension of cells picked from a colony will always enhance the sensitivity of this (and related) assays, it is possible to streak cells without any dilution directly from a colony if the plate is evaluated early (after approximately 24 hours, some regrowth will occur later), as depicted in FIG. 13B. […]

[2] = system: C. auris; assay: Differentiation of C. auris from other Candida species with other QACs in growth media; format: cell-based; settings: QAC added to growth medium
[3] = system: Candida auris; assay: BAC media panel growth key (Table A, FIG. 19); format: cell-based; settings: BAC low 1.5 mg/l or high 10 mg/l; pH 3.3 or 7.5; peptone, potato dextrose or YNB with amino acids; 23° C. or 37° C.
Text: (§1) As an example, a group of 36 yeast strains with Candida-like morphology representing 29 different species was used to define single species or subgroups of species depending on their QAC sensitivity at different temperatures, pH values and in the presence of different supplements (e.g. peptone, potato dextrose, and YNB with amino acids).
(§2) Preliminary tests were designed with several representative yeast strains with a range of benzalkonium chloride (“BAC”) concentrations, a mix of supplements, neutral pH, and intermediate temperature (30° C.). The observed growth characteristics made it likely that two BAC concentrations (“low”=1.5 mg/l and “high”=10 mg/l) could be used in conjunction with the three different growth supplements (used separately). Low and high pH and temperature values were defined to elicit species-specific growth responses: two different pH conditions (pH 3.3 and pH 7.5, adjusted with concentrations of HCl or 100 mg/ml NaOH) and incubation temperatures (23° C. and 37° C.). Commonly used concentrations for peptone (20 g/l), potato dextrose (24 g/l), and yeast nitrogen base with amino acids (6.7 g/l) were applied. […] For example: “pH7.5/low BAC/Pep-23° C.” refers to a plate with pH 7.5, […] BAC (low BAC) containing peptone as a growth supplement and incubated at 23° C.
(§3) All 36 strains were streaked and precultured for 48 h on Sabauroud-dextrose medium at 30° C. before cell samples were suspended in water (as described before). 10-15 μl drops of these suspensions were applied to the different media and plates were incubated in parallel at 37° C. and 23° C. These drops were classified as growing (+) or non-growing (−) after 3 days or 5 days of incubation, respectively.

[4] = system: Candida rugosa; assay: BAC media panel growth key (Table A, FIG. 19); format: cell-based; settings: BAC low 1.5 mg/l or high 10 mg/l; pH 3.3 or 7.5; peptone, potato dextrose or YNB with amino acids; 23° C. or 37° C.
Text: as §1, §2, §3

[5] = system: Candida guilliermondii; assay: BAC media panel growth key (Table A, FIG. 19); format: cell-based; settings: BAC low 1.5 mg/l or high 10 mg/l; pH 3.3 or 7.5; peptone, potato dextrose or YNB with amino acids; 23° C. or 37° C.
Text: as §1, §2, §3

[6] = system: Candida valida; assay: BAC media panel growth key (Table A, FIG. 19); format: cell-based; settings: BAC low 1.5 mg/l or high 10 mg/l; pH 3.3 or 7.5; peptone, potato dextrose or YNB with amino acids; 23° C. or 37° C.
Text: as §1, §2, §3

## CC(C)(C)OO [tert-butyl-hydroperoxide]
[1]
  sensitivity to tBHP relative to other yeasts: relatively high sensitivity

## CC(C)(C)CC(C)(C)c1ccc(OCCOCC[N+](C)(C)Cc2ccccc2)cc1 [benzethonium chloride]
[2]
  use to differentiate C. auris from other Candida species: successfully used

## CCCCCCCCCCCCCC[N+](C)(C)C.[Br-] [tetradecyltrimethylammonium bromide]
[2]
  use to differentiate C. auris from other Candida species: successfully used

## benzalkonium chloride
[2]
  use to differentiate C. auris from other Candida species: successfully used
[3]
  growth pattern over 24 BAC / supplement / pH / temperature conditions: resistance to BAC under virtually all conditions
[4]
  growth pattern over 24 BAC / supplement / pH / temperature conditions: growth at the high concentration appears to be restricted to the low pH
[5]
  growth pattern over 24 BAC / supplement / pH / temperature conditions: growth is observed under all conditions at 23 °C but not 37 °C
[6]
  growth pattern over 24 BAC / supplement / pH / temperature conditions: BAC sensitivity under all conditions
